Article PMC6530537, “Efficient development of stable and highly functionalised peptides targeting the CK2α/CK2β protein–protein interaction” (Chemical Science, 2019)
Residue numbers refer to the chain shown, from its start.

What was measured:
[1] = biological target: T1, CK2α (Homo sapiens, UniProt P68400, K74A/K75A/K76A/R21S); test: Isothermal titration calorimetry, direct binding to CK2α; conditions: for Kd: ITC, 25°C, CK2α_KA, Tris 200 mM, NaCl 300 mM, 10% DMSO, single site binding model
T1 construct: CK2α_KA (residues 2 -329) contained four; His6 (N, cleaved yes); made in house; host or cells: Escherichia coli BL21(DE3)
T1 sequence (P68400 2-329 R21S/K74A/K75A/K76A): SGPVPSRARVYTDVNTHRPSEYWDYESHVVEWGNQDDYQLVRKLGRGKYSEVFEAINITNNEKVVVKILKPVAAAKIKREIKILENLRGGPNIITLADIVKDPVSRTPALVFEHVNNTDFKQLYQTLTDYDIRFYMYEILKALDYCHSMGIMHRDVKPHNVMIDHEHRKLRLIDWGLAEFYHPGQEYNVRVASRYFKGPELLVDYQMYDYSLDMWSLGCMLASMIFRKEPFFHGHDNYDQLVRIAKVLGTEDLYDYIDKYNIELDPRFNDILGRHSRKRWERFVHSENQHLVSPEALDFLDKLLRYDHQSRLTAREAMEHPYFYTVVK
Procedure: lysed using a high-pressure homogeniser.
The soluble supernatant was applied on a […]
mM NaCl, 1mM DTT, 1mM EDTA, pH 8.5). 100µL of the precision protease was loaded onto the […]
Pure protein was concentrated to 15 mg/mL and flash frozen in liquid N2. […]
1.4.3. Isothermal Calorimetry Titration
1.4.3.1. Direct binding assay
DMSO) and concentrated to 20-50 μM. Compounds in 100× stock solutions were diluted into the […]
Control titrations were performed, and the […]

[2] = biological target: T2, CK2α/CK2β interaction (Homo sapiens, UniProt P68400); test: ITC competition assay: CK2β binding to CK2α alone and in the presence of peptide; conditions: 25°C, 100 μM peptide, preliminary assay
T2 construct: CK2α_WT was used (residues 2-329); His6 (N, cleaved yes); made in house; host or cells: Escherichia coli BL21(DE3)
T2 sequence (P68400 2-329): T1 sequence (P68400 2-329 R21S/K74A/K75A/K76A) with S20R, A73K, A74K, A75K
Procedure: (§1) We then wanted to investigate whether the peptides would be able to inhibit the binding of the β subunit to the α subunit. To this end, the binding affinity of the regulatory β subunit for the catalytic domain was determined via ITC (Kd 9 nM). This was then repeated in the presence of 100 μM P1-C4 and P2-C4 (ESI, Table S4 ^†). […] As one of the key roles of CK2β is to recruit substrates to the kinase, the effect of PPI inhibition on substrate phosphorylation was studied using CK2β dependent and independent substrates. […] It should be noted that the kinase assay was performed using the pre-formed CK2α/β complex as the ability of CK2α to phosphorylate eIF2β requires the presence of the CK2β subunit.
1.4.3.2. Competition assay […]
concentrated to 4-6 μM. CK2β (9.3 mg/mL, 20 mM Tris pH 8.5, 500 mM NaCl) was diluted in Tris buffer (200 mM, NaCl, 300 mM, 10% DMSO) and concentrated to 40 μM. In a typical experiment, […]
performed at 150 second intervals. The syringe was loaded with CK2β and rotated at 750 rpm. The same experiment was repeated in the presence of the peptide s: compounds at 1 mM in DMSO were added to the solutions of CK2α and CK2β (prepared as described above) to a final concentration of […]
binding model using Origin software. […]
(CK2β-RAD) 200s, baseline 120s (assay buffer), control loading 200s (RAD), baseline 150s (assay buffer), ligand binding (association) 400s (CK2α K74A and CAM7117) and ligand dissociation 600s (assay buffer), followed by regeneration and next cycles. […]
GraphPad. The results are the average of 4 repeats and error shown as SEM.
Figure S10- Sensorgrams of the BLI competition experiments to assess the ability of P2-C4 to […] the CK2α/CK2β-RAD complex. a) Concentration of peptide ranging from 10 to 0.025 μM and 0 μM. b) Concentration of peptide ranging from 10 to 5 nM and 0 nM.
(1 picture or pasted object on this page, not shown here)

[3] = biological target: T3, CK2α/CK2β-RAD complex (Homo sapiens, UniProt P68400, K74A/K75A/K76A/R21S); test: Competition Bio-Layer Interferometry (BLI): formation of the CK2α/CK2β-RAD complex; type: binding; conditions: biotin-labelled CK2β-RAD 50 nM on streptavidin sensors, CK2α 50 nM, 20mM TRIS pH 8.0, 350mM NaCl, 0.5% Tween, average of 4 repeats, SEM, read-out: IC50, prevention of formation of the CK2α/CK2β-RAD complex
T3 construct: CK2α_KA (residues 2 -329) contained four; His6 (N, cleaved yes); made in house; host or cells: Escherichia coli BL21(DE3)
T3 sequence (P68400 2-329 R21S/K74A/K75A/K76A): T1 sequence (P68400 2-329 R21S/K74A/K75A/K76A)
Procedure: Octet RED96 (ForteBio) instrument was used for BLI analysis of biotin-labelled CK2β-RAD/CAM7117 interactions. Experiments were performed using SA-Streptavidin biosensors (ForteBio), which were regenerated with 10mM glycine, pH 1.7. 20mM TRIS pH 8.0, 350mM NaCl, 0.5% Tween was used as the assay buffer. For binding assays pre-wet sensors were loaded with biotin labelled CK2β-RAD protein at 50 nM in assay buffer. CK2α K74A was prepared at 50 nM in assay buffer and dilution series (from 0 to 10 μM) of CAM7117 were prepared in the assay buffer. The following experimental setup was used for each measurement cycle: regeneration 3× 5s, baseline 120s, sample loading (CK2β-RAD) 200s, baseline 120s (assay buffer), control loading 200s (RAD), baseline 150s (assay buffer), ligand binding (association) 400s (CK2α K74A and CAM7117) and ligand dissociation 600s (assay buffer), followed by regeneration and next cycles. During the control loading stage all […]
Regenerated SA-Streptavidin biosensors loaded with biotin labelled RAD were used to perform referencing. Data was processed using ForteBio Analysis 7.1 software and IC50 was calculated using GraphPad. The results are the average of 4 repeats and error shown as SEM. […]

[4] = biological target: T4, CK2α/β holoenzyme (Homo sapiens, UniProt P68400); test: ADP-Glo kinase assay, CK2β-dependent substrate eIF2β, pre-formed CK2α/β complex; type: biochemical; conditions: 50 nM CK2α_WT + 50 nM CK2β_WT pre-formed, 25 μM ATP, 50 μM eIF2β peptide, 25 °C, 120 min, at least three independent repeats, read-out: IC50, inhibition of phosphorylation of the CK2β-dependent substrate eIF2β
T4 construct: CK2α_WT was used (residues 2-329); His6 (N, cleaved yes); made in house; host or cells: Escherichia coli BL21(DE3)
T4 sequence (P68400 2-329): T1 sequence (P68400 2-329 R21S/K74A/K75A/K76A) with S20R, A73K, A74K, A75K
Procedure: as §1
(§2) The kinase assays were performed using the ADP-Glo™ kinase assay kit (Promega). 50 nM CK2α_WT was incubated in the kinase reaction buffer (40 mM Tris pH 7.5, 200 mM NaCl, 20 mM MgCl2, 0.1 mg/mL BSA, 25 μM ATP, 50 μM substrate peptide (RRRADDSDDDD, Enzo Life Sciences […]
(§3) Inc. or eIF2β peptide […]), 5% (v/v) DMSO) in the presence of different concentrations of the inhibitor at 25 °C for 120 min. […] The luminescence was recorded using a PHERAstar FS plate reader (BMG LABTECH) with an integration time of 1 sec.
(§4) Percentage inhibition was calculated relative to a DMSO control after subtraction of the measurement for basal ATPase activity in the absence of substrate. […]

[5] = biological target: T5, CK2α (Homo sapiens, UniProt P68400); test: ADP-Glo kinase assay, β-independent substrate peptide RRRADDSDDDD; type: biochemical; conditions: 50 nM CK2α_WT, 25 μM ATP, 50 μM substrate, 25 °C, 120 min
T5 construct: CK2α_WT was used (residues 2-329); His6 (N, cleaved yes); made in house; host or cells: Escherichia coli BL21(DE3)
T5 sequence (P68400 2-329): T1 sequence (P68400 2-329 R21S/K74A/K75A/K76A) with S20R, A73K, A74K, A75K
Procedure: as §1, §2, §3, §4

[6] = test system: U2OS cells; type: cell-based, human
Procedure: (§5) CellCarrier Ultra) in 40 μL of growth medium.
(§6) 1.5.5. Co-localisation experiments […]
(§7) confocal microscope with a 40X water immersion objective. Images were acquired with excitation at […]
(§8) green, red and blue channel respectively.
(§9) The following primary antibodies were used:
(§10) Antibody Organelle stained Supplier and catalogue Working concentration […]
(§11) Calnexin Endoplasmic reticulum Invitrogen, PA5-34665 1:750
(§12) Hoechst nuclei stain was used to a working concentration of 1:5000. […]
(§13) concentration 4%). Cells were fixed for 15 minutes, washed with PBS (3x) and blocked with 3% BSA + 0.1 % […] for 5 minutes. The blocking solution was then removed and 40 μL of the primary antibodies in BSA added. The plate was stored in the dark, at 4 °C overnight. The primary antibodies were washed with PBS (3x) and 40 μL of the secondary antibodies and Hoechst nuclei stain in BSA added. The plate was kept at 4 °C for 1 hour, washed with PBS (3x) and imaged as described above. Images were analysed using Fiji (ImageJ) software.

[7] = test system: HCT116 cells; test: cells; type: cell-based, human; conditions: 24 h
Procedure: (§14) page 47: 1.5. Biological experimental 1.5.1. […] The experiment was performed in duplicates. 1.5.2. […] 1.5.3. […] 46

[8] = test system: U2OS cells; test: cells; type: cell-based, human; conditions: 24 h
Procedure: as §14

[9] = test system: U2OS cells; test: Cell viability / apoptosis assay (CytoTox-Glo), 4 hour treatment; type: cell-based, human; conditions: after 4 hours
[10] = test system: CK2β localisation in U2OS cells; test: Immunofluorescence imaging of subcellular localisation of CK2β; type: cell-based, human; conditions: 30 μM, 15 minute incubation, CK2β antibody
Procedure: as §5, §6, §7, §8, §9, §10, §11, §12, §13

[11] = test system: U2OS and HCT116 cells; conditions: proliferation, growth rate, viability (Fig. S5-S7)
Procedure: All cell lines used were supplied by AstraZeneca cell bank as mycoplasma free. U2OS bone
osteosarcoma and HCT116 colon carcinoma cells were maintained in RPMI -1640 (1x, Sigma Aldrich,
R0883) supplemented with 2 mM L-glutamine (Gibco, 25030-149) and fetal bovine serum (FBS, Gibco
Life Technologies, 10270-106) at a final concentration of 10%, hereafter known as growth medium. All
cells were grown at 37°C/5% CO2 in a humidified environment and all the assays were performed
using these culturing conditions.
HCT116 cells were seeded at 2000 cells per well into two flat-bottomed 384-well plates (PerkinElmer
CellCarrier Ultra) in 40 μL of growth medium. After 24 hours, the peptides dissolved in DMSO (10 mM)
were added to the cells (to final concentrations of 100, 75, 50, 32, 25, 16, 10, 7.7, 5, 3.2, 0 μM) using
HP Tecan dispenser and DMSO normalised to a final concentration of 1% (v/v). Cells were then
incubated in the presence of the compounds for 4 days and the rate of growth monitored with
IncuCyte Zoom (plate day 4). […]
inhibition was calculated relative to DMSO controls, normalised against day 0 and GI50 values were
calculated using Graphpad Prism. […]
minutes at room temperature, luminescence was read on a multimode plate reader (EnVision, […]
dead cells was measured. […]
calculated by subtracting the luminescent signal resulting from experimental cell death from total
luminescence death. […]

For CC(=O)NCC(=O)N[C@H]1Cn2cc(nn2)-c2cc(C(=O)O)cc(c2)-c2cn(nn2)C[C@@H](C(=O)NCC(=O)NCC(N)=O)NC(=O)[C@H](Cc2c[nH]cn2)NC(=O)[C@H](Cc2c[nH]c3ccccc23)NC(=O)[C@H](CCCCN)NC(=O)[C@H](Cc2ccccc2)NC(=O)CNC(=O)[C@H](Cc2ccc(O)cc2)NC(=O)[C@H](CC(C)C)NC(=O)[C@H](CCCNC(=N)N)NC1=O [P2-C4], which “Improvement in Kd of the constrained peptide compared to the linear variant P2” value ([1]; ITC Kd, P2-C4 vs P2) is on record?
The value was 300 fold.

What about the Kd [1] of the same compound?
Its Kd is 150 nM.

And the “Binding of CK2β to CK2α in the presence of peptide” value [2]?
The value was “no binding of CK2β to CK2α was detected”.

And the IC50 [3]?
The IC50 was 150 ± 19 nM.

What about the IC50 [4] of the same compound?
The IC50 was 206 ± 29 nM.

What about the “Effect on phosphorylation of a β-independent substrate peptide (RRRADDSDDDD)” value [5] of the same compound?
The value was “did not affect the phosphorylation”.

With “GXF2C4RLYGFKWHXF2C4GG (sidechain bridge or staple) [P2-F2C4, FITC-labelled analogue of CAM7117]” as the compound, how does the “Cellular uptake / cell permeability” value [6] read?
The value was “successfully internalised”.

How did the Kd [1] turn out when CC(=O)NCC(=O)N[C@H]1Cn2cc(nn2)-c2cc(C(=O)NCCCCCC(=O)NCCCCCC(=O)N[C@H](CCCNC(=N)N)C(=O)N[C@H](CCCNC(=N)N)C(=O)N[C@H](CCCNC(=N)N)C(N)=O)cc(c2)-c2cn(nn2)C[C@@H](C(=O)NCC(=O)NCC(N)=O)NC(=O)[C@H](Cc2c[nH]cn2)NC(=O)[C@H](Cc2c[nH]c3ccccc23)NC(=O)[C@H](CCCCN)NC(=O)[C@H](Cc2ccccc2)NC(=O)CNC(=O)[C@H](Cc2ccc(O)cc2)NC(=O)[C@H](CC(C)C)NC(=O)[C@H](CCCNC(=N)N)NC1=O [CAM7117] was run?
The Kd was 200 nM.

And the GI50 [7]?
Its GI50 is 76000 ± 4000 nM.

And the GI50 [8]?
The GI50 was 32000 ± 2000 nM.

And the Induction of apoptosis [9]?
The Induction of apoptosis was “induced apoptosis”.

And the “Nuclear localisation of CK2β after treatment” value [10]?
The value was “little or no fluorescence associated with the CK2β antibody was found in the nucleus”.

For C#Cc1cc(C#C)cc(C(=O)NCCCCCC(=O)NCCCCCC(=O)N[C@H](CCCNC(=N)N)C(=O)N[C@H](CCCNC(=N)N)C(=O)N[C@H](CCCNC(=N)N)C(N)=O)c1 [F1C4], which “Biological effects in cancer cells” value [11] is on record?
The value was “No biological effects”.
